According to patent US10556905B2, “Processes for preparing a diazabicyclooctane compound” (priority 2012, dated 2020):
In brackets after ≈: the same amount, converted by molar mass.

What was measured:
[1] = system: multi-drug resistant tuberculosis (MDR-TB); test: Anti-tubercle bacillus activity, liquid medium dilution MIC; format: cell-based; settings: for MIC: Bacillus, 168 h, read-out: antibacterial activity (MIC) of β-lactam agent alone
[2] = system: extensively drug-resistant tuberculosis (XDR-TB); test: as above; format: cell-based; settings: for MIC: Bacillus, 168 h, read-out: antibacterial activity (MIC) of β-lactam agent alone

C[C@@H](O)[C@H]1C(=O)N2C(C(=O)[O-])=C(SC3Cn4cnc[n+]4C3)[C@H](C)[C@H]12 (some centres unmarked) [BIPM, biapenem, reference compound]
MIC [1]: 16 µg/mL (≈ 45.7 µM) | MIC [2]: 2 µg/mL (≈ 5.71 µM)

C[C@@H](O)[C@H]1C(=O)N2C(C(=O)O)=C(SC3CN(C4=NCCS4)C3)[C@H](C)[C@H]12 [TBPM, tebipenem, reference compound]
MIC [1]: 4 µg/mL (≈ 10.4 µM) | MIC [2]: 1 µg/mL (≈ 2.61 µM)

C[C@@H](O)[C@H]1C(=O)N2C(C(=O)O)=C(S[C@@H]3CN[C@H](C(=O)N(C)C)C3)[C@H](C)[C@H]12 [MEPM, meropenem, reference compound]
MIC [1]: 16 µg/mL (≈ 41.7 µM) | MIC [2]: 4 µg/mL (≈ 10.4 µM)

NCCONC(=O)[C@@H]1CC[C@@H]2CN1C(=O)N2OS(=O)(=O)O [Example 59, (2S,5R)—N-(2-Aminoethoxy)-7-oxo-6-(sulfooxy)-1,6-diazabicyclo[3.2.1]octane-2-carboxamide]
antibacterial activity (MIC) of ABPC in combinatorial use ([1]; ABPC + 4 μg/mL compound, MDR-TB): 32 µg/mL | antibacterial activity (MIC) of AMPC in combinatorial use ([1]; AMPC + 4 μg/mL compound, MDR-TB): 64 µg/mL | antibacterial activity (MIC) of BIPM in combinatorial use ([1]; BIPM + 4 μg/mL compound, MDR-TB): 4 µg/mL | antibacterial activity (MIC) of MEPM in combinatorial use ([1]; MEPM + 4 μg/mL compound, MDR-TB): 8 µg/mL | antibacterial activity (MIC) of TBPM in combinatorial use ([1]; TBPM + 4 μg/mL compound, MDR-TB): 2 µg/mL | antibacterial activity (MIC) of ABPC in combinatorial use ([2]; ABPC + 4 μg/mL compound, XDR-TB): 16 µg/mL | antibacterial activity (MIC) of AMPC in combinatorial use ([2]; AMPC + 4 μg/mL compound, XDR-TB): 16 µg/mL | antibacterial activity (MIC) of BIPM in combinatorial use ([2]; BIPM + 4 μg/mL compound, XDR-TB): 1 µg/mL | antibacterial activity (MIC) of MEPM in combinatorial use ([2]; MEPM + 4 μg/mL compound, XDR-TB): 1 µg/mL | antibacterial activity (MIC) of TBPM in combinatorial use ([2]; TBPM + 4 μg/mL compound, XDR-TB): 0.5 µg/mL

CC1(C)S[C@@H]2[C@H](NC(=O)[C@H](N)c3ccccc3)C(=O)N2[C@H]1C(=O)O [ABPC, ampicillin, reference compound]
MIC [1]: 128 µg/mL (≈ 366 µM) | MIC [2]: 32 µg/mL (≈ 91.6 µM)

CC1(C)S[C@@H]2[C@H](NC(=O)[C@H](N)c3ccc(O)cc3)C(=O)N2[C@H]1C(=O)O [AMPC, amoxicillin, reference compound]
MIC [1]: 128 µg/mL (≈ 350 µM) | MIC [2]: 64 µg/mL (≈ 175 µM)
